{"source": "patent US12037300B2", "about": "“Use of a cation source to prevent decomposition of (thio)phosphoric acid triamide urease inhibitors when a phosphorus-containing fertilizer is present” (BASF SE, priority 2016, dated 2024)", "key": {"[1]": {"type": "physicochemical", "conditions": "for decomposition of the urease inhibitors: after one day in the absence of TSP granules", "description": "The amount of the (thio)phosphoric acid triamide in a sample after a certain time period may be detected e.g. by HPLC using method DIN EN 16651. In order to exclude a destabilizing effect caused by the urea-containing fertilizer (3a), the (thio)phosphoric acid triamide (2) may be provided in combination with a stabilizing agent, which prevents decomposition caused by the fertilizer (3a). By comparing the decomposition of the (thio)phosphoric acid triamide (2) in the presence of the fertilizer (3a) only, with the decomposition of the (thio)phosphoric acid triamide (2) in the presence of the fertilizer mixture (3) comprising the fertilizer (3a) and the P-containing fertilizer (3b), the decomposition caused by the P-containing fertilizer (3b) can be determined.\nActive ingredient content on urea was analyzed by HPLC (high-pressure liquid chromatography) using method DIN EN 16651. In case of bulk blends, the urea granules were separated from the other fertilizers before dissolving in water for HPLC analysis.\nUrea granules treated with 0.04 wt.-% U1 active ingredient were mixed with TSP (Triple Super Phosphate) fertilizer granules. After mixing, the samples were stored in closed containers at room temperature. After 1 day of storage, the urea granules were separated from the TSP granules and the active ingredient (a.i.) concentration on the urea was analyzed by HPLC."}, "[2]": {"tested_on": "urease, naturally present in the soil", "test": "Dräger test: ammonia emission from soil treated with fertilizer granules", "type": "biochemical", "conditions": "for influence of DAP on the performance of the tested urease inhibitors in urea/DAP blends on addition of the salt: 0.5 g salt, 3 weeks storage; for influence of DAP on the performance of the tested urease inhibitors in urea/DAP blends on addition of the salt / prevention of the degradation of U1: 10 g DAP; for prevention of the degradation of U1: 0.25 g salt, 18 days storage", "description": "Alternatively, the amount of the (thio)phosphoric acid triamide (2) in a sample after a certain time period may be determined indirectly by determining the urease inhibiting efficacy that is observable. The urease-inhibiting efficacy may be determined by the Dräger test as outlined in the Examples. The Dräger test is based on the determination of the concentration of ammonia gas that is set free from a soil sample being treated with a urea-containing fertilizer once a day. In general, a certain amount of ammonia is typically produced within a certain time period in a soil sample being treated with a urea-containing fertilizer due to the degradation of the urea-containing fertilizer caused by the urease, which is present in the soil. If the urea-containing fertilizer is provided in combination with a urease inhibitor such as a (thio)phosphoric acid triamide (2), the degradation of the urea-containing fertilizer is slowed down, so that a lower amount of ammonia will be produced in the same time period. On the other hand, if the (thio)phosphoric acid triamide (2) has decomposed to a certain extent, e.g. upon storage, the production of ammonia will be reduced only to a lower extent. The ammonia concentration measured after a certain time period may thus be correlated with the amount of the (thio)phosphoric acid triamide (2) in a sample. In order to exclude a destabilizing effect caused by the urea-containing fertilizer (3a), the (thio)phosphoric acid triamide (2) may be provided in combination with a stabilizing agent, which prevents decomposition caused by the fertilizer (3a). By comparing the decomposition of the (thio)phosphoric acid triamide (2) in the presence of the fertilizer (3a) only, with the decomposition of the (thio)phosphoric acid triamide (2) in the presence of the fertilizer mixture (3) comprising the fertilizer (3a) and the P-containing fertilizer (3b), the decomposition caused by the P-containing fertilizer (3b) can be determined.\nFor the Dräger test, 150 g Limburgerhof (Germany) soil is added to a 500 mL wide-mouth jar (9 cm diameter). Fertilizer granules are added and distributed evenly over the soil. The amount of fertilizer added corresponds to 115 mg of urea-N. The soil and fertilizer are then wetted with a fine spray of water (1 mL). Afterwards, the jar is closed with a lid. In the middle of the lid a hole is made in which an ammonia gas test tube (Dräger, Ammoniak 20/a-D 8101301, Diffusionsröhrchen) is placed. The urease, naturally present in the soil, hydrolyses urea into carbon dioxide and ammonia. The concentration of ammonia gas is read out once a day from the scale on the Dräger diffusion tube. All tests are performed in duplicate.\nFor the preparation of dry blend fertilizer mixtures, 10 g of urea treated with a urease inhibitor and 10 g of the other fertilizer are added to a small jar. After closing the jar, the fertilizers are mixed by vigorously shaking the jar. The closed jar is then stored at room temperature in a dark place. At the end of the storage time, urea granules are removed and tested using the Dräger test."}}, "data": [{"molecule": "Urea", "values": [{"measurement": "Remaining a.i. (%)", "setting": "[1]; 24 h", "value": 100, "unit": "%"}]}, {"molecule": "O=S(=O)([O-])[O-].[Mg+2]", "note": "[magnesium sulfate, Magnesium sulfate anhydrous]", "values": [{"measurement": "prevention of the degradation of U1 in fertilizer mixtures containing DAP", "setting": "[2]; 0.25 g MgSO4, 10 g DAP, 1 month storage", "value": "does prevent the degradation of U1"}, {"measurement": "influence of DAP on the performance of the tested urease inhibitors in urea/DAP blends on addition of the salt", "setting": "[2]", "value": "eliminates the influence of DAP"}, {"measurement": "time for which degradation of U1 in mixtures containing DAP is prevented", "setting": "[2]; 1.25 wt.-% magnesium sulfate", "value": "up to 5 months"}, {"measurement": "time for which degradation of U1 in mixtures containing phosphate fertilizers is prevented", "setting": "[2]; 2.5 wt.-% magnesium sulfate", "value": "up to 6 months"}, {"measurement": "inhibition of the urease activity by the salt itself", "setting": "[2]; 10 g urea, 0.25 g MgSO4, 1 month storage", "value": "does not inhibit the urease activity"}, {"measurement": "inhibition of the urease enzyme by the salt on its own", "setting": "[2]; Example 5, 18 days storage", "value": "does not inhibit the urease enzyme"}, {"measurement": "amount effective to avoid U1 degradation", "setting": "[2]; after 5 days storage of the NP mixture (urea/DAP)", "value": "≤ 0.25", "unit": "wt.-%"}]}, {"molecule": "O.O.O.O.O.O.O.O=S(=O)([O-])[O-].[Mg+2]", "note": "[Magnesium sulfate heptahydrate]", "values": [{"measurement": "prevention of the degradation of U1", "setting": "[2]", "value": "does prevent the degradation of U1 as effectively as anhydrous magnesium sulfate"}]}, {"molecule": "[Ca+2].[Cl-].[Cl-]", "note": "[calcium chloride, Calcium chloride anhydrous]", "values": [{"measurement": "prevention of the degradation of U1", "setting": "[2]", "value": "effective in preventing the degradation of U1"}, {"measurement": "influence of DAP on the performance of the tested urease inhibitors in urea/DAP blends on addition of the salt", "setting": "[2]", "value": "eliminates the influence of DAP"}, {"measurement": "prevention of the degradation of U1 active ingredient on wetblend fertilizers", "setting": "[2]; 16-8-22 fertilizer treated with CaCl2 solution, 1 month storage", "value": "able to prevent the degradation of U1 active ingredient"}]}, {"molecule": "CCCCNP(N)(N)=S", "note": "[NBPT, N-n-butylthiophosphoric acid triamide]", "values": [{"measurement": "decomposition of the urease inhibitors", "setting": "[1]", "value": "no decomposition"}]}, {"molecule": "CCCNP(N)(N)=S", "note": "[NPPT, N-n-propylthiophosphoric acid triamide]", "values": [{"measurement": "decomposition of the urease inhibitors", "setting": "[1]", "value": "no decomposition"}]}, {"molecule": "O.O.O=S(=O)([O-])[O-].[Ca+2]", "note": "[calcium sulfate, Calcium sulfate dihydrate]", "values": [{"measurement": "prevention of the degradation of U1", "setting": "[2]", "value": "effective in preventing the degradation of U1"}]}]}
